# ChEMBL document CHEMBL1862790, “Optimisation of fenarimol series for the treatment of Chagas disease”
# pIC50: −log10 of the molar value. “And” between values parts separate entries of the source, which are not always exact repeats. Equal entries are not always repeated.
# What was measured:
# Trypanosoma cruzi [1] = experiment: microbe, parasite or virus in culture; assay type: functional, Tulahuen LacZ, Clone C4
# [2] = DNDI: Cytotoxicity against L-6 rat myoblasts from skeletal muscle cells; details: L6 rat skeletal muscle myoblast cells
# Trypanosoma cruzi [3] = experiment: microbe, parasite or virus in culture; assay type: functional, organism-based, Tulahuen LacZ, Clone C4
# [4] = Trypanosoma cruzi, Tulahuen LacZ, Clone C4
Compound,IC90 (Trypanosoma cruzi [1]; [4]) [nM],pIC50 [2],pIC50 (Trypanosoma cruzi [3]),pIC50 (Trypanosoma cruzi [3]; [4]),IC90 (Trypanosoma cruzi [1]),pIC50 ([2]; IC50)
OC(c1cccnc1)(c1cccc(F)c1)c1ccccc1Cl (centres undefined),> 1000,< 4.00,6.12,6.25,,
OC(c1ccc(Cl)cc1)(c1cccnc1)c1cnc(Cl)nc1 (centres undefined),,,6.79 and 6.32,,339 nM and 850 nM,< 4.00
OC(c1ccc(Cl)cc1)(c1cccnc1)c1ccccc1F (centres undefined),152,< 4.00,7.46,7.27,179 nM,
N#Cc1ccc(C(c2cccnc2)N2CCC(NC(=O)c3ccccc3C(F)(F)F)CC2)cc1 (centres undefined),12,,8.40,8.35,15.5 nM,< 4.00
OC(c1ccc(Cl)cc1)(c1cncnc1)c1ccccc1F (centres undefined),820,,,6.85,,< 4.00
O=[N+]([O-])c1ccc(O/N=C/c2cc(Br)c(O)c(Br)c2)c([N+](=O)[O-])c1,,4.08,,4.62,,
N#Cc1ccc(C(c2cccnc2)N2CCC(NC(=O)c3c(F)cccc3F)CC2)cc1 (centres undefined),48,,7.73,7.67,55.5 nM,< 4.00
OC(Cc1ccc(Cl)nc1)c1ccc(Cl)cc1 (centres undefined),,,,< 6.00,,< 4.00
OC(c1ccc(Cl)cc1)(c1cccnc1)c1ccc(Cl)cc1Cl (centres undefined),52.2,4.27,,7.82,,
CON=C(Cc1ccccc1)c1ccc(F)cc1,,,,< 6.00,,
OC(c1cccnc1)(c1cncnc1)c1ccccc1Cl (centres undefined),10000,,,5.11,,< 4.00
OC(c1ccccc1)(c1cncnc1)c1ccccc1Cl (centres undefined),70000,,,5.60,,< 4.00
CS(=O)(=O)N1CCN(C(c2cccnc2)c2ccc(Cl)cc2F)CC1 (centres undefined),,,7.07 and 7.34,,380 nM and 167 nM,
O/N=C(\c1ccc(Cl)cc1)c1ccccc1Cl,93000,,,4.33,,4.26
Cc1cc(C(=O)NC2CCN(C(c3ccc(C#N)cc3)c3cccnc3)CC2)n(C)n1 (centres undefined),130,,7.33,7.24,97.5 nM,< 4.00
N#Cc1ccc(C(O)(c2ccc(C(F)(F)F)cc2)c2cccnc2)cc1 (centres undefined),32,,7.74,7.92,33 nM,4.20
O=C(C1CC1)N1CCC(NC(c2ccc(Cl)cc2)c2cccnc2)CC1 (centres undefined),,,6.96,,,
OC(c1ccc(Cl)cc1)(c1ccccn1)c1ccccc1Cl (centres undefined),90000,< 4.00,,4.56,,
Clc1ccc(C(c2cncnc2)c2ccccc2Cl)cc1 (centres undefined),80000,,,5.97,,< 4.00
COc1ccccc1C(O)(c1ccc(Cl)cc1)c1cncnc1 (centres undefined),8700,,,5.94,,< 4.00

Compound,IC90 (Trypanosoma cruzi [1]; [4]) [nM],pIC50 [2],pIC50 (Trypanosoma cruzi [3]),pIC50 (Trypanosoma cruzi [3]; [4]),IC90 (Trypanosoma cruzi [1]),pIC50 ([2]; IC50)
Cc1ncsc1C(=O)N1CCC(NC(c2ccc(C(F)(F)F)cc2)c2cccnc2)CC1 (centres undefined),218,,7.24,7.17,180 nM,< 4.00
CS(=O)(=O)N1CCN(C(c2cncnc2)c2ccc(Cl)cc2F)CC1 (centres undefined),724,,6.41,6.35,850 nM,< 4.00
OC(c1ccc(Cl)cc1)(c1cnccn1)c1ccccc1Cl (centres undefined),7900,,,6.36,,< 4.00
N#Cc1cccc(OC2CCN(C(c3ccc(C(F)(F)F)cc3)c3cccnc3)CC2)c1 (centres undefined),,,8.08,8.12,12.5 nM and 29 nM,
OC(c1ccc(Cl)cc1)(c1cccnc1)c1cccc(F)c1 (centres undefined),330,,,7.00,,
COc1ccc(C(O)(c2cncnc2)C2CC2)cc1 (centres undefined),62500,< 4.00,,4.68,,
OC(c1ccccc1)(c1ccc(Cl)cc1)c1cncnc1 (centres undefined),,,,6.34,,< 4.00
OC(c1ccc(F)cc1)(c1ccc(Cl)cc1)c1cncnc1 (centres undefined),,,,6.19,,< 4.00
OC(c1ccc(Cl)cc1)(c1cncnc1)c1cccc(F)c1 (centres undefined),1900,,,6.08,,< 4.00
OC(c1ccc(Cl)cc1)(c1cncnc1)c1cccc(Cl)c1 (centres undefined),10000,,,6.29,,4.24
CC(C)C(O)(c1ccc(Cl)cc1)c1cncnc1 (centres undefined),21000,,,5.65,,< 4.00
Clc1ccc(C(c2ccc(Cl)cc2)c2cccnc2)cc1,1600,,,7.10,,
C#CCOC(=O)[C@@H](C)Oc1ccc(Oc2ncc(Cl)cc2F)cc1 [CLODINAFOP PROPARGYL],,,,4.17,,< 4.00
OC(c1ccc(Cl)cc1)(c1cncnc1)c1ccccc1Cl (centres undefined) [FENARIMOL],560,,,6.60,,
CC(Oc1ccc(Oc2nc3ccc(Cl)cc3o2)cc1)C(=O)O (centres undefined) [FENOXAPROP],,< 4.00,,< 4.00,,
CNC1=C(c2cccc(C(F)(F)F)c2)C(=O)C(c2ccccc2)O1 (centres undefined) [FLURTAMONE],,4.08,,4.26,,
CON(C)C(=O)Nc1ccc(Br)cc1 [METOBROMURON],,< 4.00,,4.14,,
CC(Oc1ccc(Cl)cc1Cl)C(=O)O (stereo not drawn) [RAC-DICHLORPROP],,< 4.00,,4.13,,
Oc1cc(Cl)ccc1Oc1ccc(Cl)cc1Cl [TRICLOSAN],,4.08,,4.28,,
